Results reported in patent publication US20070154580A1, “Antiviral Morinda Citrifolia L. Based Formulations and Methods of Administration” (priority 2005, published 2007).
Read-outs that look alike come from different tables or passages of the source.

Assays:
[1] = molecular target: T1, Protease, CTSG (Cathepsin G) (Homo sapiens, UniProt P08311); assay: Protease, CTSG (Cathepsin G) inhibition assay; format: biochemical; settings: reference compound, concurrent run; read-out: Concurrent MIC IC50
T1 sequence (P08311 21-255): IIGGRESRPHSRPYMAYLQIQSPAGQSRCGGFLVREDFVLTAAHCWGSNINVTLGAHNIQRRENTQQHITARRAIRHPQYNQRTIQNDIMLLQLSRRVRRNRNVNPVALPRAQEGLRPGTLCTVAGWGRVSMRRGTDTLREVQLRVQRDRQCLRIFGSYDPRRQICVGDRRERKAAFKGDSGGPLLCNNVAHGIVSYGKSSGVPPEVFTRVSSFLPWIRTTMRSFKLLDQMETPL

[2] = molecular target: T1, Protease, CTSG (Cathepsin G); settings: reference compound, historical value; cited from earlier work

IC50 [1]: 1220 nM
Structure (SMILES): CC(C)C[C@H](NC(=O)[C@@H](NC(=O)N[C@@H](Cc1ccccc1)C(=O)O)[C@@H]1CCN=C(N)N1)C(=O)N[C@H](C=O)Cc1ccccc1 [Chumostatin]
IC50 [2]: 2100 nM
